The values that follow come from patent publication US6162463A (priority 1998, dated 2000).

Each structure is given as a SMILES string. Structures can show the parent of a compound that is named as a salt. Bounds are passed on as bounds.

For series [1] the following is noted: oral, 120 mg diltiazem hydrochloride, after administration; FIG. 6.
Protocol: (§1) An interval of approximately 5-7 days elapsed between the administration of each agent tested in this example.
(§2) (TM) containing EDTA (ethylenediamine tetraacetic acid) as an anticoagulant just before administration of the test agent; this sample represented the zero time sample. The blood sample was centrifuged for 15 minutes under conditions known to those skilled in the art. The plasma portion of each sample was harvested, frozen and stored at minus 70 degrees Celsius until analysis. At timed intervals after administration, additional blood samples were withdrawn and similarly treated.
A further series in a line: clinical. Particulars: po, 120 mg.
In the next series the test system is angina pectoris. The following applies: cited from earlier work.
The conditions of series [2]: cited from earlier work.

Protocol for clinical: as §1, §2

On to `COc1ccc([C@@H]2Sc3ccccc3N(CCN(C)C)C(=O)[C@@H]2OC(C)=O)cc1` [diltiazem hydrochloride], for which the “time by which most of the quick release preparation is gone (plasma)” value in series [1] was in the range of 5 to 6 h. Moreover, the Tmax – broadly, the time at which the peak concentration occurs – in the series “clinical” (human, plasma) is 1 to 2 h; in the series “clinical” (in vivo) it was 1 to 2 h.

As for `COc1ccc([C@@H]2Sc3ccccc3N(CCN(C)C)C(=O)[C@@H]2OC(C)=O)cc1` [diltiazem], the “incidence of side effects compared with other calcium channel blockers” value in the series with angina pectoris (human, in vivo) is recorded as “lower incidence of side effects”. Also, in the series with angina pectoris (reference 1), the “safety and efficacy in stable and unstable angina pectoris” value was “safe and effective treatment for both stable and unstable angina pectoris”. The “decrease in bioavailability by first-pass metabolism (loss)” value in series [2] (oral) is on record as at most 60%. For the same compound, the plasma half-life in series [2] (references 17, 19) was 2 to 6 h.
